# Measurements published in ChEMBL document CHEMBL1641371, “Peptide deformylase inhibitors with non-peptide scaffold: synthesis and structure-activity relationships” (Bioorg Med Chem Lett, 2011).
# Tests used:
# [1] = biological target: T1, Peptide deformylase (Pseudomonas aeruginosa (strain ATCC 15692 / PAO1 / 1C / PRS 101 / LMG12228), UniProt Q9I7A8); assay: Inhibition of Pseudomonas aeruginosa peptide deformylase after 10 mins by fluorescence assay
# T1 sequence (Q9I7A8 whole entry): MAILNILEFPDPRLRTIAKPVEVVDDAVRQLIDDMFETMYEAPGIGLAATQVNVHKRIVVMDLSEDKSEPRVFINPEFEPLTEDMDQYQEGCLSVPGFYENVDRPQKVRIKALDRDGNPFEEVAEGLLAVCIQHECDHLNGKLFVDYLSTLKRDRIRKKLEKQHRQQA
# [2] = test system: Streptococcus pneumoniae; assay: Antimicrobial activity against Streptococcus pneumoniae ATCC 6305 after 48 hrs by microtiter plate assay; assay type: functional; settings: ATCC 6305, 48 h
# [3] = test system: Haemophilus influenzae; assay: Antimicrobial activity against Haemophilus influenzae ATCC 51907 after 24 hrs by microtiter plate assay; assay type: functional; settings: ATCC 51907, 24 h
# [4] = test system: Moraxella catarrhalis; assay: Antimicrobial activity against Moraxella catarrhalis ATCC 43617 after 48 hrs by microtiter plate assay; assay type: functional; settings: ATCC 43617, 48 h
# [5] = test system: Staphylococcus aureus; assay: Antimicrobial activity against Staphylococcus aureus ATCC 6538p after 24 hrs by microtiter plate assay; assay type: functional
SMILES,IC50 [1] [nM],MIC [2] [µg/mL],MIC [3] [µg/mL],MIC [4] [µg/mL],MIC [5] [µg/mL]
CCCC[C@H](CN(O)C=O)C(=O)[C@@H]1CCCN1C(=O)OC(C)(C)C,169,6.3,0.4,0.4,12.5
COc1ccccc1NC(=O)N[C@@H](C(=O)N(CC(=O)NO)CC1CCCC1)C(C)(C)C,29,0.2,0.2,0.1,50
CCCC[C@H](CN(O)C=O)C(=O)[C@@H](NC(=O)C(C)C)C(C)C,60,0.8,0.2,1.6,3.2
CCCC[C@H](CN(O)C=O)C(=O)[C@@H](NC(=O)c1cccc(OC)c1)C(C)C,22,0.2,0.2,0.8,0.8
CCCC[C@H](CN(O)C=O)C(=O)[C@@H](NC(=O)c1cccc(F)c1)C(C)C,43,0.4,0.2,1.6,1.6
CCCC[C@H](CN(O)C=O)C(=O)[C@@H](NC(=O)c1ccc2ccccc2n1)C(C)C,8,0.1,0.2,0.1,0.4
CCCC[C@H](CN(O)C=O)C(=O)[C@@H](NC(=O)NC1CCCC1)C(C)C,10,1.6,0.2,0.1,1.6
CCCC[C@H](CN(O)C=O)C(=O)[C@@H](NC(=O)Nc1ccccc1F)C(C)C,41,0.2,0.1,0.1,0.4

# More lines, now with the values ahead:
IC50 [1] [nM],MIC [2] [µg/mL],MIC [3] [µg/mL],MIC [4] [µg/mL],MIC [5] [µg/mL],SMILES
603,6.3,3.2,0.1,100,CCCC[C@H](CN(O)C=O)C(=O)[C@H](NC(=O)OC(C)(C)C)C(C)(C)C
183,1.6,1.6,0.1,12.5,CCCC[C@H](CN(O)C=O)C(=O)[C@@H](NC(=O)OC(C)(C)C)C(C)C
330,3.2,0.8,1.6,12.5,CCCC[C@H](CN(O)C=O)C(=O)[C@H](C)NC(=O)OC(C)(C)C
51,3.2,0.2,0.4,3.2,CCCC[C@H](CN(O)C=O)C(=O)[C@@H](NC(=O)c1ccccc1)C(C)C
117,0.2,0.1,0.1,1.6,CCCC[C@H](CN(O)C=O)C(=O)[C@@H](NC(=O)c1ccccn1)C(C)C
73,0.2,0.1,0.1,0.8,CCCC[C@H](CN(O)C=O)C(=O)[C@@H](NC(=O)c1cccnc1)C(C)C
52,0.4,0.1,0.1,1.6,CCCC[C@H](CN(O)C=O)C(=O)[C@@H](NC(=O)c1ccncc1)C(C)C
5,0.4,0.4,0.1,6.4,CCCC[C@H](CN(O)C=O)C(=O)[C@@H](NC(=O)c1nccc2ccccc12)C(C)C
16,0.4,0.1,0.8,1.6,CCCC[C@H](CN(O)C=O)C(=O)[C@@H](NC(=O)NC(C)C)C(C)C
49,0.4,0.4,0.1,1.6,CCCC[C@H](CN(O)C=O)C(=O)[C@@H](NC(=O)Nc1ccccc1)C(C)C
41,0.1,0.2,0.1,0.8,CCCC[C@H](CN(O)C=O)C(=O)[C@@H](NC(=O)Nc1ccccc1OC)C(C)C
43,1.6,0.1,0.1,0.8,CCCC[C@H](CN(O)C=O)C(=O)[C@@H](NC(=O)Nc1ccccn1)C(C)C
